Experimental data: patent US20220233662A1, “NOVEL PEPTIDE” (University College Cardiff Consultants Ltd., priority 2020, published 2022)

How the values were obtained:
Assay type in all cases: cell-based, human
[1] = system: CD8+ T-cells from HLA A2+ healthy donors; experiment: Priming of CD8+ T-cells from HLA A2+ healthy donors with WT and APL peptides, tetramer staining; conditions: HLA A2+ healthy donors (n=3), compared to priming with WT peptides
Experimental: The peptides are sequence […] to the wild-type peptide and termed altered peptide ligands. […] (FIG. 9B) To test the APLs for super-agonist properties each of the WT and APL peptides were used to prime CD8+ T-cells from HLA A2+ healthy donors. The magnitude of the response to each of the peptides was assessed by staining the T-cells with tetramers for HLA A2-[…]
To generate T-cell peptide lines, CD8 T-cells were purified from the PBMCs of HLA A2+ donors using CD8 microbeads according to the manufacturer's instructions (Miltenyi Biotech, Bergisch Gladbach, Germany). Purified CD8 cells (3×10^6) were co-incubated with autologous CD8neg cells (6-8×10^6) in 24 well plates in 2 mL of T-cell media, but with no IL-15. 25 μM of each peptide was used. The cultures had 50% of the media changed thrice weekly. Tetramer staining was performed as above, using 500,000 cells per tube. […] 50,000 T-cells and 15,000 cancer cells were used per well. Incubation was performed for 48 h, and the assay developed according to the manufacturer's instructions (Mabtech, Nacka Strand, Sweden).
(§1) CPL assay of CR24 was performed as described above. Candidate peptide agonists were designed using the CR24 CPL and an online algorithm (http://wsbc.warwick.ac.uk/wsbcToolsWebpage/user_cases.php). Priming of CD8 T-cells from healthy donors, tetramer staining, and chromium release cytotoxicity assays were performed as described above.

T-cell clone CR24 [2] = experiment: HLA A2 tetramer staining of CR24
T-cell clone CR24 [3] = experiment: Activation assay of clone CR24 with exogenous peptide (peptide titration, MIP-1β ELISA)
[4] = system: autologous melanoma cells; experiment: Chromium release cytotoxicity assay of peptide-primed T-cell lines with autologous melanoma; conditions: compared to WT Melan A peptide primed T-cells
Experimental: as §1

[5] = system: autologous cancer cells (RCC, CLL); experiment: Killing assay of peptide-primed CD8 T-cells with autologous cancer cells
Text: (§2) (FIG. 14A) CD8 T-cells from a renal cell carcinoma (RCC) and chronic lymphocytic leukaemia (CLL) patient were left unprimed or primed with […] peptide for 28 days.

[6] = system: CD8 T-cells from RCC, CLL and AML patients; experiment: Priming of CD8 T-cells from RCC, CLL and AML patients for 28 days, TAPI-0 assay or tetramer staining
Text: as §2

| Sequence | priming of Melan A, BST2 and IMP2 tetramer-positive T-cells [1] | staining of CR24 with HLA A2 tetramer containing the peptide (T-cell clone CR24 [2]) | recognition by CR24 as exogenous peptide (T-cell clone CR24 [3]) | CR24 response to individual peptide (T-cell clone CR24 [3]; peptide at 10^-6 M) | CR24 response to individual peptide (T-cell clone CR24 [3]; peptide at 10^-8 M) | lysis of autologous melanoma cells by peptide-primed T-cells [4] | killing of CLL cells by primed T-cells ([5]; CLL patient 3, compared to IMP-2 primed CD8s) | killing of autologous cancer cells by primed CD8s ([5]; RCC and CLL patient, compared to unprimed T-cells) | priming of Melan A, BST2 and IMP2 tetramer-positive T-cells ([1]; listed as MTSAIGVLVP) | proportion of IMP-2 specific T-cells (IMP-2 tetramer) ([6]; AML patient and two CLL patients, primed 28 days, compared to unprimed) | MTSAIGILPV specific T-cells after priming ([6]; RCC patient (TAPI-0 assay), CLL patient (tetramer), primed 28 days) | priming of T-cells in RCC, CLL and AML patients ([6]; renal cell carcinoma, chronic lymphocytic leukaemia and acute myeloid leukaemia patients) |
| --- | --- | --- | --- | --- | --- | --- | --- | --- | --- | --- | --- | --- |
| ITSAIGILPV (listed as Homo sapiens) [APL 2, altered peptide ligand, candidate super-agonist designed from CR24 CPL data] | exhibiting effect across each donor |  |  |  |  |  |  |  |  |  |  |  |
| LLLGIGILVL (listed as Homo sapiens) [wild-type peptide from BST2 (residues 22-31)] |  | stained | recognised | responded | responses dropped |  |  |  |  |  |  |  |
| MTSAIGILPV (listed as Homo sapiens) [APL 5, altered peptide ligand, super-agonist peptide for multi-pronged T-cells] | most effective super-agonist |  |  |  |  | superior lysis | killed more CLL cells | killed more autologous cancer cells | most effective of the candidate super-agonists | induced a greater proportion | presence | superior at priming |
| NLSALGIFST (listed as Homo sapiens) [wild-type peptide from IMP2 (residues 367-376)] |  | stained | recognised | responded | responses dropped |  |  |  |  |  |  |  |
